Key:
Assay type in all cases: in vivo
[1] = test system: lambsquarters (Chenopodium album); assay: Test C pre-/postemergence: lambsquarters
Summary of the method: (§1)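 Visual injury scored 0–100 (100 = complete control) against untreated controls after 13–15 greenhouse days. Surfactant-containing solvent formulations applied either to soil after sowing (loam/sand) or over 1- to 4-leaf plants, 2–18 cm tall.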

[2] = test system: barnyardgrass (Echinochloa crus-galli); assay: Test A pre-/postemergence: barnyardgrass
Summary of the method: (§2)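 Plants in loam–sand blend were treated with test chemicals in non-phytotoxic solvent with surfactant, either as preemergence directed soil spray or postemergence at 2–10 cm, one- to two-leaf stage. After about ten days in greenhouse, injury was rated visually against untreated controls on a 0–100 scale (100 = complete control).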

[3] = test system: blackgrass (Alopecurus myosuroides); assay: Test C pre-/postemergence: blackgrass
Summary of the method: as §1

[4] = test system: wheat (Triticum aestivum); assay: Test A pre-/postemergence: wheat; settings: for Wheat plant response rating: visual rating on 0 to 100 scale (0 no effect, 100 complete control), approximately ten days
Summary of the method: as §2

[5] = test system: foxtail, giant (giant foxtail, Setaria faberii); assay: Test C pre-/postemergence: foxtail, giant
Summary of the method: as §1

[6] = test system: large crabgrass (Digitaria sanguinalis); assay: Test C pre-/postemergence: large crabgrass
Summary of the method: as §1

corn (Zea mays) = assay: Test C pre-/postemergence: corn
Summary of the method: as §1

[7] = test system: morningglory (Ipomoea coccinea); assay: Test C pre-/postemergence: morningglory
Summary of the method: as §1

[8] = test system: pigweed (Amaranthus retroflexus); assay: Test A pre-/postemergence: pigweed; settings: for Pigweed plant response rating: visual rating on 0 to 100 scale (0 no effect, 100 complete control), approximately ten days
Summary of the method: as §2

[9] = test system: crabgrass, large (large crabgrass, Digitaria sanguinalis); assay: Test A pre-/postemergence: crabgrass, large
Summary of the method: as §2

[10] = test system: nutsedge, yellow (yellow nutsedge, Cyperus esculentus); assay: Test C pre-/postemergence: nutsedge, yellow
Summary of the method: as §1

[11] = Postemergence, 31 g ai/ha, scale 0 to 100 (0 no effect, 100 complete control)
[12] = Postemergence, 62 g ai/ha, scale 0 to 100 (0 no effect, 100 complete control)
[13] = Postemergence, 125 g ai/ha, scale 0 to 100, 0 no effect, 100 complete control
[14] = Postemergence, 250 g ai/ha, scale 0 to 100
[15] = Postemergence, 125 g ai/ha, 0 to 100 scale, 0 is no effect, 100 is complete control
[16] = Postemergence, 500 g ai/ha, visual rating on 0 to 100 scale (0 no effect, 100 complete control), approximately ten days
[17] = Preemergence, 125 g ai/ha, 0 to 100 scale where 0 is no effect and 100 is complete control
[18] = Preemergence, 500 g ai/ha, 0 to 100 scale (0 no effect, 100 complete control)
[19] = Preemergence, 31 g ai/ha, scale of 0 to 100, 0 is no effect, 100 is complete control
[20] = Preemergence, 62 g ai/ha, scale of 0 to 100, 0 is no effect, 100 is complete control
[21] = Preemergence, 125 g ai/ha, scale 0 to 100, 0 no effect, 100 complete control
[22] = Preemergence, 250 g ai/ha, scale 0 to 100, 0 no effect, 100 complete control

Cc1nn(-c2ccnc(Cl)c2)nc1Cc1ccnc(C(F)(F)F)c1 [Compound 141]
Plant response rating, Lambsquarters [1, 11]: 98 | Plant response rating, Lambsquarters [1, 12]: 98 | Plant response rating, Lambsquarters [1, 13]: 98 | Plant response rating, Lambsquarters [1, 14]: 98 | Barnyardgrass plant response rating [2, 15]: 80 | Barnyardgrass plant response rating [2, 16]: 90 | Plant response rating, Barnyardgrass [2, 17]: 40 | Plant response rating, Barnyardgrass [2, 18]: 100 | Plant response rating, Blackgrass [3, 11]: 20 | Plant response rating, Blackgrass [3, 12]: 20 | Plant response rating, Blackgrass [3, 13]: 35 | Plant response rating, Blackgrass [3, 14]: 75 | Plant response rating, Wheat [4, 15]: 20 | Wheat plant response rating ([4]; Postemergence, 500 g ai/ha): 50 | Plant response rating, Wheat [4, 17]: 0 | Plant response rating, Wheat [4, 18]: 20 | Plant response rating, Foxtail, Giant [5, 11]: 10 | Plant response rating, Foxtail, Giant [5, 12]: 20 | Plant response rating, Foxtail, Giant [5, 13]: 45 | Plant response rating, Foxtail, Giant [5, 14]: 80 | Plant response rating, Crabgrass, Large [6, 11]: 20 | Plant response rating, Crabgrass, Large [6, 12]: 55 | Plant response rating, Crabgrass, Large [6, 13]: 80 | Plant response rating, Crabgrass, Large [6, 14]: 95 | Plant response rating, Corn (corn (Zea mays); [11]): 45 | Plant response rating, Corn (corn (Zea mays); [12]): 45 | Plant response rating, Corn (corn (Zea mays); [13]): 55 | Plant response rating, Corn (corn (Zea mays); [14]): 60 | Plant response rating, Morningglory [7, 11]: 85 | Plant response rating, Morningglory [7, 12]: 85 | Plant response rating, Morningglory [7, 13]: 95 | Plant response rating, Pigweed [8, 15]: 100 | Pigweed plant response rating ([8]; Postemergence, 500 g ai/ha): 100 | Plant response rating, Pigweed [8, 17]: 100 | Plant response rating, Pigweed [8, 18]: 100 | Crabgrass, Large plant response rating [9, 15]: 90 | Crabgrass, Large plant response rating [9, 16]: 90 | Plant response rating, Crabgrass, Large [9, 17]: 100 | Plant response rating, Crabgrass, Large [9, 18]: 100 | Plant response rating, Nutsedge, Yellow [10, 11]: 0 | Plant response rating, Nutsedge, Yellow [10, 12]: 10 | Plant response rating, Nutsedge, Yellow [10, 13]: 15 | Plant response rating, Nutsedge, Yellow [10, 14]: 15

Cc1nn(-c2ccc(F)c(C(F)(F)F)c2)nc1Cc1ccnc(C(F)(F)F)c1 [Compound 156]
Plant response rating, Lambsquarters [1, 11]: 98 | Plant response rating, Lambsquarters [1, 12]: 98 | Plant response rating, Lambsquarters [1, 13]: 98 | Plant response rating, Lambsquarters [1, 14]: 98 | Plant response rating, Lambsquarters [1, 19]: 100 | Plant response rating, Lambsquarters [1, 20]: 100 | Plant response rating, Lambsquarters [1, 21]: 100 | Plant response rating, Lambsquarters [1, 22]: 100 | Plant response rating, Barnyardgrass [2, 15]: 90 | Barnyardgrass plant response rating [2, 16]: 90 | Plant response rating, Barnyardgrass [2, 17]: 100 | Plant response rating, Barnyardgrass [2, 18]: 100 | Plant response rating, Blackgrass [3, 11]: 50 | Plant response rating, Blackgrass [3, 12]: 60 | Plant response rating, Blackgrass [3, 13]: 75 | Plant response rating, Blackgrass [3, 14]: 85 | Plant response rating, Blackgrass [3, 19]: 85 | Plant response rating, Blackgrass [3, 20]: 90 | Plant response rating, Blackgrass [3, 21]: 90 | Plant response rating, Blackgrass [3, 22]: 90 | Plant response rating, Wheat [4, 15]: 40 | Wheat plant response rating ([4]; Postemergence, 500 g ai/ha): 60 | Plant response rating, Wheat [4, 17]: 20 | Plant response rating, Wheat [4, 18]: 80 | Plant response rating, Foxtail, Giant [5, 11]: 10 | Plant response rating, Foxtail, Giant [5, 12]: 15 | Plant response rating, Foxtail, Giant [5, 13]: 25 | Plant response rating, Foxtail, Giant [5, 14]: 50 | Plant response rating, Foxtail, Giant [5, 19]: 90 | Plant response rating, Foxtail, Giant [5, 20]: 90 | Plant response rating, Foxtail, Giant [5, 21]: 90 | Plant response rating, Foxtail, Giant [5, 22]: 95 | Plant response rating, Crabgrass, Large [6, 11]: 10 | Plant response rating, Crabgrass, Large [6, 12]: 30 | Plant response rating, Crabgrass, Large [6, 13]: 40 | Plant response rating, Crabgrass, Large [6, 14]: 70 | Plant response rating, Crabgrass, Large [6, 19]: 90 | Plant response rating, Crabgrass, Large [6, 20]: 90 | Plant response rating, Crabgrass, Large [6, 21]: 98 | Plant response rating, Crabgrass, Large [6, 22]: 100 | Plant response rating, Corn (corn (Zea mays); [12]): 15 | Plant response rating, Corn (corn (Zea mays); [13]): 25 | Plant response rating, Corn (corn (Zea mays); [14]): 30 | Plant response rating, Corn (corn (Zea mays); [19]): 5 | Plant response rating, Corn (corn (Zea mays); [20]): 5 | Plant response rating, Corn (corn (Zea mays); [21]): 10 | Plant response rating, Corn (corn (Zea mays); [22]): 30 | Plant response rating, Morningglory [7, 11]: 65 | Plant response rating, Morningglory [7, 12]: 70 | Plant response rating, Morningglory [7, 13]: 75 | Plant response rating, Morningglory [7, 14]: 100 | Plant response rating, Morningglory [7, 19]: 5 | Plant response rating, Morningglory [7, 20]: 10 | Plant response rating, Morningglory [7, 21]: 10 | Plant response rating, Morningglory [7, 22]: 30 | Plant response rating, Pigweed [8, 15]: 100 | Pigweed plant response rating ([8]; Postemergence, 500 g ai/ha): 100 | Plant response rating, Pigweed [8, 17]: 100 | Plant response rating, Pigweed [8, 18]: 100 | Plant response rating, Crabgrass, Large [9, 15]: 100 | Crabgrass, Large plant response rating [9, 16]: 100 | Plant response rating, Crabgrass, Large [9, 17]: 100 | Plant response rating, Crabgrass, Large [9, 18]: 100 | Plant response rating, Nutsedge, Yellow [10, 11]: 5 | Plant response rating, Nutsedge, Yellow [10, 12]: 10 | Plant response rating, Nutsedge, Yellow [10, 13]: 10 | Plant response rating, Nutsedge, Yellow [10, 14]: 10 | Plant response rating, Nutsedge, Yellow [10, 19]: 0 | Plant response rating, Nutsedge, Yellow [10, 20]: 0 | Plant response rating, Nutsedge, Yellow [10, 21]: 0 | Plant response rating, Nutsedge, Yellow [10, 22]: 0

Reference: patent publication US9302999B2, “Substituted triazoles as herbicides” (E. I. DU PONT DE NEMOURS AND COMPANY, priority 2012, dated 2016)
